Read-outs that look alike come from different tables or passages of the source. Peptide text beside a SMILES is read from it.
How the values were obtained:
PSD-95 PDZ1 [1] = molecular target: T1, PSD-95 PDZ1 (Homo sapiens, UniProt P78352); test: FP competition assay, PSD-95 PDZ1 (probe Cy5-KIF1Bα); type: binding
T1 construct: PSD-95 PDZ1 (aa 61–151); made in house; host or cells: E. coli One Shot BL21 Star (DE3)
Experimental: (§3) FP measurements were performed in black, flat bottom 384-well NBS microplates (Corning) on a Synergy H4 microplatereader (BioTek Instruments) equipped with a 620/40 nm excitation filter, a 680/30 nm emission filter, and a 660 nm dichroic mirror. Polarization values were corrected with blank samples and samples with fluorescent probe alone. At least 10 data points were measured for each curve, and each data point was measured in triplicate. […] All FP measurements were performed in a buffer containing 10 mM HEPES pH 7.4, 150 mM NaCl, and 1% BSA and incubated at least 15 min at room temperature before reading. The signal was stable for more than an hour, showing that the reaction was at equilibrium.
(§4) For the competition binding curves, probe was mixed with a constant concentration of PDZ protein corresponding to the K d and a twofold dilution series of unlabeled peptide in a total volume of 30 µl. The baseline was determined using a sample containing only probe. The IC50 was determined by fitting to a 1∶1 binding model: Y = Ymax − Ymax × X/(X+IC50). The K i was calculated from the IC50 and from the K d for the interaction between the PDZ protein and the probe as described previously [38].

PSD-95 PDZ2 [2] = molecular target: T2, PSD-95 PDZ2 (Homo sapiens, UniProt P78352); test: FP competition assay, PSD-95 PDZ2 (probe Cy5-GluN2B); type: binding; conditions: read-out: K i PDZ2
T2 construct: PDZ2 (aa 155–249); made in house; host or cells: E. coli One Shot BL21 Star (DE3)
Experimental: as §3, §4

PSD-95 PDZ3 = molecular target: T3, PSD-95 PDZ3 (Homo sapiens, UniProt P78352); test: FP competition assay, PSD-95 PDZ3 (probe Cy5-CRIPT); type: binding; conditions: read-out: K i PDZ3
T3 construct: made in house; host or cells: E. coli One Shot BL21 Star (DE3)
Experimental: We used a competition set-up, where a constant concentration of isolated PSD-95 PDZ domain and a labeled reference ligand was titrated with unlabeled peptides from the GPCR C-tail library, typically within a 1–512 µM concentration range, and the resulting curves were fitted to obtain the IC50, which was used to calculate the K i (Figure 1). Three Cy5-labeled peptides with well-documented interactions with PSD-95 were used as reference ligands for the competition assay: Cy5-KIF1Bα was used for PDZ1 [20], Cy5-GluN2B (formerly known as NR2B) was used for PDZ2 and PDZ1-2 [21], and Cy5-CRIPT was used for PDZ3 [22] (Table S1). Competition with unlabeled versions of the reference ligands was used to validate the FP assay by comparison with the literature (Table S2).
FP measurements were performed in black, flat bottom 384-well NBS microplates (Corning) on a Synergy H4 microplatereader (BioTek Instruments) equipped with a 620/40 nm excitation filter, a 680/30 nm emission filter, and a 660 nm dichroic mirror. Polarization values were corrected with blank samples and samples with fluorescent probe alone. At least 10 data points were measured for each curve, and each data point was measured in triplicate. 25 nM Cy5-labeled probe was used for each assay: Cy5-KIF1Bα for PDZ1, Cy5-GluN2B for PDZ2 and PDZ1-2, and Cy5-CRIPT for PDZ3. All FP measurements were performed in a buffer containing 10 mM HEPES pH 7.4, 150 mM NaCl, and 1% BSA and incubated at least 15 min at room temperature before reading. The signal was stable for more than an hour, showing that the reaction was at equilibrium.
Saturation binding curves were used to determine the functionality of the PDZ domains by comparison with literature values and to calculate K i values from competition curves. Saturation binding curves were performed by mixing probe with a twofold dilution series of PDZ protein in a total volume of 30 µl. The K d was determined by fitting to a 1∶1 binding model: Y = Ymax × X/(X+K d).
For the competition binding curves, probe was mixed with a constant concentration of PDZ protein corresponding to the K d and a twofold dilution series of unlabeled peptide in a total volume of 30 µl. The baseline was determined using a sample containing only probe. The IC50 was determined by fitting to a 1∶1 binding model: Y = Ymax − Ymax × X/(X+IC50). The K i was calculated from the IC50 and from the K d for the interaction between the PDZ protein and the probe as described previously.

PSD-95 PDZ1 [3] = molecular target: T1, PSD-95 PDZ1; test: SPR steady-state binding to immobilized PSD-95 PDZ1
From the text: (§1) To confirm the affinities measured by FP using an orthogonal method and to get information about the kinetics of the GPCR–PDZ interactions, we used SPR. This label-free, surface sensitive technique measures the binding of a ligand to an immobilized protein as a function of time based on refractive index changes.
(§2) For each of the PSD-95 PDZ domains, we determined the K d and the stability of the complexes for selected GPCR C-tail peptides. The residence time τ ( = 1/k d) was used as a convenient measure of the stability of the complexes. […] The K d determined from the steady-state responses of a range of C-tail peptide concentrations (Figure 2B and Table S4) correlated well with the K i values obtained by FP (Figure S1).
A Biacore X100 (GE Healthcare) SPR instrument equilibrated to 25.0°C and equipped with a Sensor Chip CM5 (for PDZ1 and PDZ2) or CM4 (for PDZ3) (GE Healthcare) was used for the SPR measurements. The running buffer was HBS-EP+ (10 mM HEPES pH 7.4, 150 mM NaCl, 3 mM EDTA, 0.05% Surfactant P-20 (GE Healthcare)).
PDZ domains were immobilized by amine coupling at a flow rate of 5 µl/min on a surface activated by a 7 min injection of a 1∶1 mixture of 0.4 M 1-ethyl-3-(3-dimethylaminopropyl) carbodiimide (EDC) and 0.1 M N-hydroxysuccinimide (NHS). The remaining active groups were deactivated by a 7 min injection of 1 M ethanolamine HCl pH 8.5. 750 RU PDZ1, 780 RU PDZ2, and 410 RU PDZ3 were immobilized.
GPCR C-tail peptide samples were injected in increasing concentrations for 1 min with 1 min dissociation time at 30 µl/min. Reproducibility was tested by injecting the 20 µM sample again after the highest concentration sample. The binding curves were corrected by subtraction of buffer blanks and the response from a reference surface that was activated with EDC and NHS and deactivated with ethanolamine like the surface with immobilized PDZ domain. For peptides with a cysteine, 1 mM dithiothreitol (DTT) was added to the samples. Steady-state response curves were plotted from the responses 10 s before injection end. The K d was determined by fitting steady-state response curves to a 1∶1 binding model with a linear component to corrrect for low affinity binding, probably resulting from the immobilization: Y = Ymax × X/(X+K d)+B × X.

PSD-95 PDZ2 [4] = molecular target: T2, PSD-95 PDZ2; test: SPR steady-state binding to immobilized PSD-95 PDZ2
From the text: as §1, §2
A Biacore X100 (GE Healthcare) SPR instrument equilibrated to 25.0°C and equipped with a Sensor Chip CM5 (for PDZ1 and PDZ2) or CM4 (for PDZ3) (GE Healthcare) was used for the SPR measurements. The running buffer was HBS-EP+ (10 mM HEPES pH 7.4, 150 mM NaCl, 3 mM EDTA, 0.05% Surfactant P-20 (GE Healthcare)). […]
GPCR C-tail peptide samples were injected in increasing concentrations for 1 min with 1 min dissociation time at 30 µl/min. […] The K d was determined by fitting steady-state response curves to a 1∶1 binding model with a linear component to corrrect for low affinity binding, probably resulting from the immobilization: Y = Ymax × X/(X+K d)+B × X.

[5] = 25 nM Cy5-KIF1Bα, 10 mM HEPES pH 7.4, 150 mM NaCl, 1% BSA, room temperature, mean Ki ± SEM from two or more independent experiments, read-out: K i PDZ1
[6] = 25 nM Cy5-KIF1Bα, 10 mM HEPES pH 7.4, 150 mM NaCl, 1% BSA, room temperature, at least 15 min, Ki ± fitting error, read-out: K i PDZ1
[7] = receptors binding to PDZ1 but not to PDZ2, read-out: K i PDZ1

Row | Compound | Ki (PSD-95 PDZ1 [1]; [5]) [µM] | Ki (PSD-95 PDZ2 [2]) [µM] | Ki (PSD-95 PDZ3) [µM] | Kd (PSD-95 PDZ1 [3]) [µM] | Kd (PSD-95 PDZ2 [4]) [µM] | Ki (PSD-95 PDZ1 [1]; [6]) [µM] | Ki (PSD-95 PDZ1 [1]; [7]) [µM]
1 | CC[C@H](C)[C@H](NC(=O)[C@H](CCCNC(=N)N)NC(=O)[C@H](CCC(=O)O)NC(=O)[C@H](CO)NC(=O)[C@@H](NC(=O)[C@@H](NC(=O)[C@H](CO)NC(=O)[C@H](CCCNC(=N)N)NC(=O)[C@H](CC(=O)O)NC(=O)[C@H](CC(=O)O)NC(=O)[C@@H](N)Cc1ccc(O)cc1)C(C)C)C(C)C)C(=O)N[C@@H](CO)C(=O)N[C@@H](CO)C(=O)N[C@H](C(=O)O)C(C)C [5-HTR2C] (H-YDDRSVVSERISSV-OH) | 100 ± 0.1 | 26 ± 0.4 | 370 ± 40 | 160 ± 12 |  |  | 
2 | CC[C@H](C)[C@H](NC(=O)[C@H](CC(=O)O)NC(=O)[C@H](CCC(N)=O)NC(=O)[C@H](CCCNC(=N)N)NC(=O)[C@H](CC(=O)O)NC(=O)[C@H](CC(=O)O)NC(=O)[C@@H](N)Cc1ccc(O)cc1)C(=O)N[C@H](C(=O)N[C@@H](CC(=O)O)C(=O)N[C@@H](CC(C)C)C(=O)N[C@@H](CCC(N)=O)C(=O)N[C@H](C(=O)N[C@@H](CCC(=O)O)C(=O)N[C@H](C(=O)O)C(C)C)[C@@H](C)O)[C@@H](C)CC [BAI1] (H-YDDRQDIIDLQTEV-OH) | 63 ± 6.3 | 29 ± 1.9 | 790 ± 93 | 120 ± 3.8 |  |  | 
3 | CC[C@H](C)[C@H](NC(=O)[C@H](CCCNC(=N)N)NC(=O)[C@H](CO)NC(=O)[C@@H](NC(=O)[C@H](CS)NC(=O)[C@@H](NC(=O)CNC(=O)[C@H](CCCNC(=N)N)NC(=O)[C@H](CC(=O)O)NC(=O)[C@H](CC(=O)O)NC(=O)[C@@H](N)Cc1ccc(O)cc1)[C@@H](C)O)[C@@H](C)O)C(=O)N[C@H](C(=O)N[C@H](C(=O)N[C@@H](CC(C)C)C(=O)O)[C@@H](C)O)[C@@H](C)O [SSTR1 Human] (H-YDDRGTCTSRITTL-OH) | 50 ± 3.2 | 28 ± 2 | 200 ± 34 |  | 76 ± 1.5 |  | 
4 | CC[C@H](C)[C@H](NC(=O)[C@H](CCCNC(=N)N)NC(=O)[C@H](CO)NC(=O)[C@H](C)NC(=O)[C@H](CS)NC(=O)[C@@H](NC(=O)CNC(=O)[C@H](CCCNC(=N)N)NC(=O)[C@H](CC(=O)O)NC(=O)[C@H](CC(=O)O)NC(=O)[C@@H](N)Cc1ccc(O)cc1)[C@@H](C)O)C(=O)N[C@@H](CO)C(=O)N[C@H](C(=O)N[C@@H](CC(C)C)C(=O)O)[C@@H](C)O [SSTR1 Mouse] (H-YDDRGTCASRISTL-OH) |  | 90 ± 14 | > 1000 | 270 ± 9.1 |  | 270 ± 35 | 
5 | CC[C@H](C)[C@H](NC(=O)[C@H](CCCNC(=N)N)NC(=O)[C@H](CCCNC(=N)N)NC(=O)[C@H](CC(=O)O)NC(=O)[C@H](CC(=O)O)NC(=O)[C@@H](N)Cc1ccc(O)cc1)C(=O)N1CCC[C@H]1C(=O)N[C@@H](CC(C)C)C(=O)N[C@H](C(=O)N[C@@H](CCCNC(=N)N)C(=O)N[C@H](C(=O)N[C@H](C(=O)N[C@H](C(=O)N[C@@H](Cc1ccccc1)C(=O)O)[C@@H](C)O)[C@@H](C)O)[C@@H](C)O)[C@@H](C)O [SSTR4 Human] (H-YDDRRIPLTRTTTF-OH) |  | 450 ± 58 | 600 ± 67 |  |  | 750 ± 80 | 
6 | CC(C)[C@H](NC(=O)[C@H](CCC(N)=O)NC(=O)[C@H](CCCNC(=N)N)NC(=O)[C@H](CC(=O)O)NC(=O)[C@H](CC(=O)O)NC(=O)[C@@H](N)Cc1ccc(O)cc1)C(=O)N1CCC[C@H]1C(=O)N[C@@H](Cc1ccccc1)C(=O)N[C@H](C(=O)N[C@@H](CCCCN)C(=O)N[C@H](C(=O)N[C@H](C(=O)N[C@H](C(=O)N[C@@H](Cc1ccccc1)C(=O)O)[C@@H](C)O)[C@@H](C)O)[C@@H](C)O)[C@@H](C)O [SSTR4 Mouse] (H-YDDRQVPFTKTTTF-OH) |  | 420 ± 52 | > 1000 |  |  | > 1000 | 
7 | CC(C)[C@H](NC(=O)[C@H](CC(N)=O)NC(=O)[C@@H](NC(=O)[C@H](C)NC(=O)[C@H](CCC(=O)O)NC(=O)[C@@H](NC(=O)[C@H](Cc1ccccc1)NC(=O)[C@H](CO)NC(=O)[C@H](CC(=O)O)NC(=O)[C@H](CC(N)=O)NC(=O)[C@H](CCCNC(=N)N)NC(=O)[C@H](CC(=O)O)NC(=O)[C@H](CC(=O)O)NC(=O)[C@@H](N)Cc1ccc(O)cc1)[C@@H](C)O)[C@@H](C)O)C(=O)O [Y2] (H-YDDRNDSFTEATNV-OH) |  | 230 ± 14 | > 1000 |  |  | 270 ± 22 | 
8 | CC(C)C[C@H](NC(=O)[C@@H](NC(=O)[C@H](CO)NC(=O)[C@H](CO)NC(=O)[C@H](CO)NC(=O)[C@H](CCC(N)=O)NC(=O)[C@H](CCCCN)NC(=O)[C@H](Cc1ccc(O)cc1)NC(=O)[C@H](CC(=O)O)NC(=O)[C@H](CCCNC(=N)N)NC(=O)[C@H](CCCNC(=N)N)NC(=O)[C@H](CC(=O)O)NC(=O)[C@@H](N)CC(=O)O)[C@@H](C)O)C(=O)O [mGlu1(a)] (H-DDRRDYKQSSSTL-OH) |  | > 1000 | > 1000 |  |  |  | > 600
9 | CC[C@H](C)[C@H](NC(=O)[C@@H](NC(=O)[C@H](CC(C)C)NC(=O)[C@H](CC(N)=O)NC(=O)[C@H](CC(N)=O)NC(=O)[C@H](Cc1ccc(O)cc1)NC(=O)[C@H](CO)NC(=O)[C@@H](NC(=O)[C@H](Cc1ccc(O)cc1)NC(=O)[C@H](CCCCN)NC(=O)[C@H](CCCNC(=N)N)NC(=O)[C@H](CC(=O)O)NC(=O)[C@@H](N)CC(=O)O)C(C)C)C(C)C)C(=O)O [mGlu7(a)] (H-DDRKYVSYNNLVI-OH) |  | > 1000 | > 1000 |  |  | 610 ± 51 | > 600
10 | CC(C)[C@H](NC(=O)[C@H](CCCCN)NC(=O)[C@H](CO)NC(=O)[C@H](CCC(=O)O)NC(=O)[C@H](CO)NC(=O)[C@H](C)NC(=O)[C@H](Cc1ccccc1)NC(=O)CNC(=O)[C@@H]1CCCN1C(=O)[C@H](CCCNC(=N)N)NC(=O)[C@H](CCCNC(=N)N)NC(=O)[C@H](CC(=O)O)NC(=O)[C@H](CC(=O)O)NC(=O)[C@@H](N)Cc1ccc(O)cc1)C(=O)O [β1AR] (H-YDDRRPGFASESKV-OH) |  | 120 ± 20 | 360 ± 82 |  |  | 430 ± 47 | 
